Here are results for seven compounds from publication PMC10424179, “Disrupting Kaposi’s Sarcoma-Associated Herpesvirus (KSHV) Latent Replication with a Small Molecule Inhibitor” (Journal of Medicinal Chemistry, 2023).

Converted amounts (≈) assume the structure as drawn. Where only a bound is given, the exact number is not on record here.

One data set is described as follows: Chromatographic LogD7.4. It is filed as physicochemical. The conditions noted are these: reversed-phase HPLC, NUCLEODUR C18 Pyramid column; pH 7.4, HPLC-MS based; read-out: Chrom. LogD7.4. On the procedure:
(§1) The next step was an in vitro ADMET profiling of the best seven compounds so far: 9, 11, 14, 19, 20, 21, and 27. The compounds were tested for their kinetic solubility (1% DMSO in PBS, pH 7.4), lipophilicity (chromatographic Log D7.4 value), cellular permeability (using Caco-2 cells), and metabolic stability (using mouse and human liver S9 fractions) (see Table 3). […]
LogD7.4 was analyzed using an HPLC−MS based method. The retention time of 12 compounds with known LogD7.4 was determined and plotted toward their LogD7.4. Linear regression was used to determine the LogD7.4 of unknown compounds. Analysis was performed using a Dionex Ultimate 3000 HPLC system coupled to a TSQ Quantum Access MAX (Thermo Fisher, Dreieich, Germany) with the following conditions: EC150/2 NUCLEODUR C18 Pyramid column, 5 μM (Macherey Nagel, Düren, Germany); eluent A: 50 mM NH4OAc pH 7.4, eluent B: acetonitrile, and flow: 0.6 mL/min. The gradient was set to 0−100% B from 0 to 2.5 min, […]
are means of two replicates. […]

Data set [1] is described as follows: Metabolic stability in mouse liver S9 fraction. It is filed as in vitro ADME. The conditions noted are these: pooled liver S9 fraction, mouse liver S9, 1 μM compound; for microsomal CLint at 1 µM: read-out: MetStab Mouse Liver S9 Clint; for half-life at 1 µM: read-out: MetStab Mouse Liver S9 t1/2. On the procedure:
as §1
(§2) 1.7 Metabolic Stability in Liver S9 Fractions
(§3) For the evaluation of combined phase I and phase II metabolic stability, the compound (1 μM) was incubated with 1 mg/mL pooled mouse liver S9 fraction (Xenotech, Kansas City, USA) or human liver S9 fraction (Corning, USA), 2 mM NADPH, 1 mM UDPGA, 10 mM MgCl 2, 5 mM GSH and 0.1 mM PAPS at 37 °C for 240 min. The metabolic stability of testosterone, verapamil and ketoconazole were determined in parallel to confirm the enzymatic activity of mouse S9 fractions, for human S9 testosterone, diclofenac and propranolol were used. The incubation was stopped after defined time points by precipitation of aliquots of S9 enzymes with 2 volumes of cold acetonitrile containing internal standard (150 nM diphenhydramine). Samples were stored on ice until the end of the incubation and precipitated protein was removed by centrifugation (15 min, 4 °C, 4,000 g). Concentration of the remaining test compound at the different time points was analyzed by HPLC-MS/MS (TSQ Quantum Access MAX, Thermo Fisher, Dreieich, Germany) and used to determine half -life (t1/2). Values are means of three

A short description of a further data set: Caco-2 cell permeability. It counts as in vitro ADME. The conditions noted are these: human, pH 7.4, Caco-2 monolayer, apical to basolateral. On the procedure:
(§4) The next step was an in vitro ADMET profiling of the best seven compounds so far: 9, 11, 14, 19, 20, 21, and 27. The compounds were tested for their kinetic solubility (1% DMSO in PBS, pH 7.4), lipophilicity (chromatographic Log D7.4 value), cellular permeability (using Caco-2 cells), and metabolic stability (using mouse and human liver S9 fractions) (see Table 3).
MTT Assay: Viability of HEK293 cells ~48 hours after treatment […]
Fig S4: MTT assay for compounds 11, 14, 19, 20 and 21 using HEK293 cells. Values are means of […]
Permeability of the compounds was assessed using Caco2 monolayers grown on Transwell® (3460 Costar, Corning). In brief, cells were seeded 60.000 cells/well in 12-well Transwell plates in DMEM medium supplemented with 10% FCS and 1% NEAA. Cells were grown for 7 to 9 days with medium replacement every other day until they reached a tight monolayer. Tightness was defined as transepithelial resistance (TEER) values >300 Ω/cm² (measured using an EVOM Volt-Ohmmeter, World Precision Instruments). At the day of permeability as say, the compound stock solutions in DMSO were diluted to 10µM in Krebs -Ringer-buffer (KRB, pH 7.4). Cells treated with KRB only served as control. Monolayer was washed two times with prewarmed KRB and incubated with 500 µl sample on the apical compartment. Samples from the basolateral side were drawn at t = 0, 15, 30, 60, 120, 180 and 300 min and replaced with fresh buffer. The plates were incubated for 5 h in a cell culture incubator with lateral shaking (200 rpm). TEER values were measured again at the end of the permeability test. Compound concentration was determined with HPLC-ESI-MS/MS in SRM mode and calculated for the cumulative transport. Values are means of three replicates.

A further data set can be described thus: Kinetic solubility. It is filed as physicochemical. The conditions noted are these: PBS with 1% DMSO; 1% DMSO in PBS, pH 7.4. On the procedure:
as §4
The desired compounds were sequentially diluted in DMSO in a 96-well plate. 1.5 µL of each well were transferred into another 96-well plate and mixed with 148.5 µL of PBS. Plates were shaken for 5 min at 600 rpm at room temperature (r.t.), and the absorbance at 620 nm was measured. Absorbance values were normalized by blank subtraction and plotted using GraphPad Prism 8.4.2 (GraphPad Software, San Diego, CA, USA). Solubility (S) was determined based on the First X value of AUC function using a threshold of 0.005. […]

Data set [2] is described as follows: Metabolic stability in human liver S9 fraction. It counts as in vitro ADME. The conditions noted are these: human liver S9, 1 μM compound; for microsomal CLint at 1 µM: read-out: MetStab Human Liver S9 Clint; for half-life at 1 µM: read-out: MetStab Human Liver S9 t1/2. On the procedure: as §1, §2, §3
The target in data set [3] is LANA–DNA interaction (oligomerization-deficient LANA DBD aa 1008–1146 mutant / LBS1) (Human herpesvirus 8 (Kaposi's sarcoma-associated herpesvirus), UniProt Q76SB0). Description: Electrophoretic mobility shift assay (EMSA), LANA DBD mutant with LBS1 oligonucleotide. It is filed as biochemical, Kaposi's sarcoma-associated herpesvirus (KSHV). Particulars: compound at 250 μM; LBS1 oligonucleotide; LANA aa 1008–1146 mutant. On the procedure:
(§5) In these assays, an oligomerization-deficient mutant of a LANA C-terminal protein fragment (aa 1008–1146) and an oligonucleotide representing LANA-binding site (LBS) 1 were used, which are convenient to use and handle for the described biophysical methods, while maintaining the essential DNA-binding interface.[25]
Equation y = A2 + (A1-A2)/(1 + (x/x0)^p) […]
1.4 Electrophoretic Mobility Shift Assay (EMSA)
The EMSA was carried out with slight modific ations as described previously 2 based on the assay in Hellert et al. (2013). 3 His-tagged oligomerization-deficient LANA DBD (aa1008-1146) mutant protein or LANA DBD (aa934-1162) wild type protein (200 nM final) was incubated with a 5´-Dy682-labeled double stranded DNA probe (IBA Lifesciences) (20 nM final) for 30 minutes at RT in the dark. The reaction buffer consisted of 30 mM Tris HCl pH 7.5, 50 mM KCl, 10 mM MgCl2, 1 mM DTT, 1 mM EDTA, 10% glycerol, 0.25% Tween20, 0.5 mg/mL BSA and 0.05 mg/mL poly(dI-dC). […]
dark. 10 µL of the reaction was run on a pre -run native 5% acrylamide gel for 45 minutes at 100V with tris-borate-EDTA buffer. Images of the gels were acquired and analysed with the Odyssey (Licor) using the Image Studio software.
Fig S2: Gels of EMSA experiments at 250 μM for all compounds (A) and dose-dependent curves for compound 20 using LANA DBD mutant (B) and LANA wildtype (C) as well as LBS1. Values are means […]
Gleichung y = A2 + (A1-A2)/(1 + (x/x0)^p) […]
In general terms: A gel shift assay detects complexes by their altered migration in electrophoresis.

Data set [4] concerns the target T1, oligomerization-deficient mutant of a LANA C-terminal protein fragment (aa 1008–1146) (Human herpesvirus 8 (Kaposi's sarcoma-associated herpesvirus), UniProt Q76SB0).
T1 sequence (Q76SB0 1008-1146): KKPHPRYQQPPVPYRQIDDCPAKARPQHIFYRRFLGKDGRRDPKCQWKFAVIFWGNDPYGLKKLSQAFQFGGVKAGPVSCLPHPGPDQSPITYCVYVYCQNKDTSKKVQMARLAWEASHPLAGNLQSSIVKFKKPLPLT
Nature of the data set: Microscale thermophoresis (MST) binding assay. The conditions noted are these: read-out: KD value (MST); LANA aa 1008–1146 mutant; means of at least three replicates. The arrangement: species or system Kaposi's sarcoma-associated herpesvirus (KSHV).
Description: as §5
Equation y = A2 + (A1-A2)/(1 + (x/x0)^p)
1.3 Microscale Thermophoresis (MST) Assay
Microscale Thermophoresis Assay was done as mentioned in a previous publication. 2
In general terms: MST reads how a fluorescent partner responds to local heating, with and without ligand.

The next data set concerns the target LANA. The arrangement: method as in PMID 30888817. Particulars: cited from earlier work.

`COc1ccc(-c2cc(C)c(-n3cc(-c4ccc(C(=O)O)cc4)nn3)cn2)cc1` [Compound 19]: in the data set “Chromatographic LogD7.4”, the chromatographic logD amounted to 0.46. Further, in data set [1], the microsomal CLint at 1 µM is < 5.8 µL/min/mg and the half-life at 1 µM is > 2 h. In addition, the Papp A→B at 5 h, 10 µM in “Caco-2 cell permeability” was determined as 16.5 ± 4.7 ×10⁻⁶ cm/s. The solubility (kinetic) at 5 min in the data set “Kinetic solubility” is > 200 µM. For the same compound, in data set [2], the microsomal CLint at 1 µM is < 5.8 µL/min/mg and the half-life at 1 µM is > 2 h. Besides, the “Inhibition (EMSA, LBS1) @250 μM” value in data set [3] is 69%. For the same compound, in data set [4], the Kd amounted to 5.4 ± 1.8 µM.

`COc1cncc(-c2cc(C)c(-n3cc(-c4ccc(C(=O)O)cc4)nn3)cn2)c1` [Compound 9]: in “Chromatographic LogD7.4”, the chromatographic logD is -0.36. Further, the microsomal CLint at 1 µM in data set [1] and in data set [2] was < 5.8 µL/min/mg in each case. Also, the half-life at 1 µM in data set [1] and in data set [2] was > 2 h in each case. This compound showed a Papp A→B at 5 h, 10 µM in the data set “Caco-2 cell permeability” of 2 ± 0.5 ×10⁻⁶ cm/s. Further, the kinetic solubility at 5 min in “Kinetic solubility” amounted to 139 ± 18 µM (≈ 53.8 µg/mL). Moreover, the “Inhibition (EMSA, LBS1) @250 μM” value in data set [3] amounted to 97%. Besides, the Kd in data set [4] stood at 11 ± 1.9 µM.

Turning to `Cc1cc(-c2ccc(C(=O)O)cc2)ncc1-n1cc(-c2ccc(C(=O)O)cc2)nn1` [Compound 27], the chromatographic logD in the data set “Chromatographic LogD7.4” is -1.92. Moreover, in data set [1], the microsomal CLint at 1 µM was < 5.8 µL/min/mg and the half-life at 1 µM was > 2 h. Also, the Papp A→B at 5 h, 10 µM in “Caco-2 cell permeability” worked out at 0.5 ± 0.2 ×10⁻⁶ cm/s. Besides, in “Kinetic solubility”, the kinetic solubility at 5 min is > 200 µM. For the same compound, in data set [2], the microsomal CLint at 1 µM was < 5.8 µL/min/mg and the half-life at 1 µM is > 2 h. Also, in data set [3], the “Inhibition (EMSA, LBS1) @250 μM” value amounted to 98%. Further, in data set [4], the Kd was 11.4 ± 3.6 µM.

Consider `O=C(O)c1ccc(-c2cn(-c3cccnc3)nn2)cc1` [hit I], for which, at LANA, the Kd is 23 µM.

`COc1ncc(C)cc1-c1cc(C)c(-n2cc(-c3ccc(C(=O)O)cc3)nn2)cn1` [Compound 11]: in “Chromatographic LogD7.4”, the chromatographic logD is 0.42. In data set [1], the microsomal CLint at 1 µM was < 5.8 µL/min/mg and the half-life at 1 µM was > 2 h. Further, in “Caco-2 cell permeability”, the Papp A→B at 5 h, 10 µM is 9.6 ± 1.4 ×10⁻⁶ cm/s. For the same compound, the solubility (kinetic) at 5 min in the data set “Kinetic solubility” is > 200 µM. In data set [2], the microsomal CLint at 1 µM is < 5.8 µL/min/mg and the half-life at 1 µM was > 2 h. Moreover, the “Inhibition (EMSA, LBS1) @250 μM” value in data set [3] is reported as 96%. Also, in data set [4], the Kd amounted to 18.8 ± 2.1 µM.

On to `Cc1cc(-c2ccccc2Cl)ncc1-n1cc(-c2ccc(C(=O)O)cc2)nn1` [Compound 14], for which the chromatographic logD in the data set “Chromatographic LogD7.4” was found to be 0.67. For the same compound, in data set [1], the microsomal CLint at 1 µM is < 5.8 µL/min/mg and the half-life at 1 µM is > 2 h. Also, the Papp A→B at 5 h, 10 µM in “Caco-2 cell permeability” came out at 14.2 ± 1.8 ×10⁻⁶ cm/s. The kinetic solubility at 5 min in “Kinetic solubility” was > 200 µM. In addition, in data set [2], the microsomal CLint at 1 µM is < 5.8 µL/min/mg and the half-life at 1 µM is > 2 h. In addition, the “Inhibition (EMSA, LBS1) @250 μM” value in data set [3] is listed as 92%. Further, the Kd in data set [4] was determined as 4.2 ± 0.6 µM.

As to `Cc1cc(-c2ccccc2O)ncc1-n1cc(-c2ccc(C(=O)O)cc2)nn1` [Compound 21], the chromatographic logD in “Chromatographic LogD7.4” stood at 0.62. In data set [1], the microsomal CLint at 1 µM was < 5.8 µL/min/mg and the half-life at 1 µM was > 2 h. Also, in “Caco-2 cell permeability”, the Papp A→B at 5 h, 10 µM stood at 8.8 ± 1.1 ×10⁻⁶ cm/s. Further, in the data set “Kinetic solubility”, the solubility (kinetic) at 5 min was determined as 137 ± 20 µM (≈ 51 µg/mL). In data set [2], the microsomal CLint at 1 µM was < 5.8 µL/min/mg and the half-life at 1 µM was > 2 h. In addition, the “Inhibition (EMSA, LBS1) @250 μM” value in data set [3] was determined as 94%. Besides, the Kd in data set [4] stood at 18.8 ± 2.2 µM.

Usually Papp A→B stands for the apparent permeability from the apical to the basolateral side of a cell layer. Low readings indicate slow passage, high ones fast passage. For orientation: kinetic solubility means the concentration staying in solution when a stock, usually in DMSO, is diluted into the medium. One may read the Kd as the concentration at which binding is half-saturated.
